Measured values from US4063015A, “Garamine and derivatives thereof” (Schering Corporation, priority 1975, dated 1977).
Converted amounts (≈) assume the structure as drawn. Where two headings read alike, the source gives them in different places.

Tests used:
Escherichia coli = assay: Minimal Inhibitory Concentration (MIC), Table I; assay type: cell-based
Description: (§1) In general, the novel pseudotrisaccharides of this invention (I) can be used to treat diverse types of susceptible microbial, viral, helmintic and protozoal infestations. These anthelmintic, antiprotozoal, antimicrobial and antiviral activities can readily be determined by standard in vivo and in vitro tests well known to the microbiologist and virologist. Of the compounds of this invention it can generally be stated that those 6'--NH2 or 6'--NHR4 compounds having a 2'--OH group are preferred for their activity against bacteria, trichomonas, amoeba, and helminths; those 2'--HN2 or 2'--NHR4 compounds having a 6'--OH group are preferred for their activity against bacteria, trichomona, amoeba, and helminths; those 2'--NH2 or 2'--NHR4 compounds having a 6'--NH2 or a 6'--NHR4 group are preferred for their antibacterial activity while those 2'--OH or 6'--OH compounds are preferred for their antitrichomonal activity.
(§2) Typical activity is illustrated by the following tables showing antibacterial and antiprotozoal activities.
(§3) Minimal Inhibitory Concentration (MIC) (mcg/ml)

Pseudomonas aeruginosa = assay: Minimal Inhibitory Concentration (MIC), Table I; assay type: cell-based
Description: as §1, §2, §3

Proteus mirabilis = assay: Minimal Inhibitory Concentration (MIC), Table I; assay type: cell-based
Description: as §1, §2, §3

[1] = test system: Escherichia coli (G resistant); assay: Minimal Inhibitory Concentration (MIC), Table I; assay type: cell-based; details: garamycin resistant
Description: as §1, §2, §3

[2] = test system: Klebsiella pneumoniae (N,M resistant); assay: Minimal Inhibitory Concentration (MIC), Table I; assay type: cell-based
Description: as §1, §2, §3

Providence = assay: Minimal Inhibitory Concentration (MIC), Table I; assay type: cell-based
Description: as §1, §2, §3

[3] = test system: Pseudomonas aeruginosa (G resistant); assay: Minimal Inhibitory Concentration (MIC), Table I; assay type: cell-based; details: garamycin resistant
Description: as §1, §2, §3

Streptococcus pyogenes C = assay: Minimal Inhibitory Concentration (MIC), Table I; assay type: cell-based
Description: as §1, §2, §3

[4] = test system: Escherichia coli (T resistant); assay: Minimal Inhibitory Concentration (MIC), Table I; assay type: cell-based; details: tobramycin resistant
Description: as §1, §2, §3

Staphylococcus aureus = assay: Minimal Inhibitory Concentration (MIC), Table I; assay type: cell-based
Description: as §1, §2, §3

Salmonella typhimurium = assay: Minimal Inhibitory Concentration (MIC), Table I; assay type: cell-based; details: Salmonella enterica
Description: as §1, §2, §3

[5] = test system: Klebsiella pneumoniae (G-resistant); assay: Minimal Inhibitory Concentration (MIC), Table I; assay type: cell-based; details: garamycin resistant
Description: as §1, §2, §3

Bacillus subtilis = assay: Minimal Inhibitory Concentration (MIC), Table I; assay type: cell-based
Description: as §1, §2, §3

Serratia marcessans = assay: Minimal Inhibitory Concentration (MIC), Table I; assay type: cell-based
Description: as §1, §2, §3

[6] = test system: Escherichia coli (N,K resistant); assay: Minimal Inhibitory Concentration (MIC), Table I; assay type: cell-based; details: neomycin, kanamycin resistant
Description: as §1, §2, §3

pKa of garamine = assay type: physicochemical
Method: i. 1,3,3'-Tri-N-carbobenzoxygaramine (2.02 g.) was dissolved in methanol (100 ml.), and 10% palladium on carbon (1.0 g.) was added. The mixture was hydrogenated at 25° at 50 lbs/sq. in. for 16 hours, and the catalyst was filtered off, and washed with methanol. The filtrate was evaporated, and chromatographed on silica gel using the lower phase of a chloroform-methanol-concentrated ammonium hydroxide (2:1:1) system as the eluent. The fractions containing the garamine were concentrated in vacuo to small volume, and were then passed through Amberlite IR45 resin. The eluate was concentrated to small volume in vacuo, and the resulting solution was lyophilized to give garamine (750 mg.) (84%) as a colorless amorphous solid, m.p. 89°-99°, (Found: C, 48.31; H, 8.54; N, 12.87. C13 H27 N3 O6 requires: C, 48.60; H, 8.41; N, 13.08%), m/e 322 (M^+ +1), [α]D^26 + 135.4° (H2 O), pKa 8.5, .nu. max (nujol) 3300, 1060 cm.^-1, δ (D 2 O) 1.19 (3H, s, 4'--CH3), 2.51 (3H, s, 3'--NCH3), 2.57 (1H, d, J2',3' =10.5 Hz, H3'), 3.30 )1H, d, J5'a,5'e =12.5 Hz, H5'a), 3.79 (1H, dd, J2',3' =10.5 Hz, J1',2' =4 Hz, H2'), 4.03 (1H, d, J5'a,5'e =12.5 Hz, H5'e), 5.06 ppm. (1H, d, J1',2' =4 Hz, H1').

Trichomonas Vaginalis = assay: In vitro Activity Against Trichomonas Vaginalis, Table II; assay type: cell-based; details: for IC99: read-out: Minimal 99% suppression level; for MBC: read-out: Minimal Cidal Level
Description: as §1, §2
In vitro Activity Against Trichomonas Vaginalis
STS - Simplified Tripticase Serum Medium, Baltimore Biological
Laboratories, Baltimore, Maryland.

Row | SMILES | MIC (Escherichia coli) [µg/mL] | MIC (Pseudomonas aeruginosa) [µg/mL] | MIC (Proteus mirabilis) [µg/mL] | MIC [1] [µg/mL] | MIC [2] [µg/mL] | MIC (Providence) [µg/mL] | MIC [3] [µg/mL] | MIC (Streptococcus pyogenes C) [µg/mL] | MIC [4] [µg/mL] | MIC (Staphylococcus aureus) [µg/mL] | MIC (Salmonella typhimurium) [µg/mL] | MIC [5] [µg/mL] | MIC (Bacillus subtilis) [µg/mL] | MIC (Serratia marcessans) [µg/mL] | MIC [6] [µg/mL] | pKa (pKa of garamine) | IC99 (Trichomonas Vaginalis; 24 hr.) [µg/mL] | MBC (Trichomonas Vaginalis; 24 hr.) [µg/mL] | IC99 (Trichomonas Vaginalis; 48 hr.) [µg/mL] | MBC (Trichomonas Vaginalis; 48 hr.) [µg/mL]
1 | CN[C@@H]1[C@@H](O)[C@@H](O[C@@H]2[C@@H](O)[C@H](O[C@H]3O[C@H](CN)[C@@H](O)[C@H](O)[C@H]3N)[C@@H](N)C[C@H]2N)OC[C@]1(C)O [JI-20A] | 0.3 (≈ 0.623 µM) | 7.5 to 17.5 (≈ 15.6 to 36.3 µM) | 7.5 (≈ 15.6 µM) | > 25 | > 25 | > 25 | > 25 | 17.5 (≈ 36.3 µM) | > 25 | 0.3 (≈ 0.623 µM) | 0.3 (≈ 0.623 µM) | > 25 | < 0.05 | > 25 | – | – | – | – | – | –
2 | CNC[C@H]1O[C@H](O[C@H]2[C@H](O)[C@@H](O[C@H]3OC[C@](C)(O)[C@H](NC)[C@H]3O)[C@H](N)C[C@@H]2N)[C@H](O)C[C@@H]1O [3'-Deoxy-6'-N-methylgentamicin B] | 0.1 to 0.75 (≈ 0.208 to 1.56 µM) | 0.1 to 3 (≈ 0.208 to 6.24 µM) | 0.75 to 3 (≈ 1.56 to 6.24 µM) | – | 0.3 to 0.75 (≈ 0.624 to 1.56 µM) | 3 (≈ 6.24 µM) | – | 0.1 to 17.5 (≈ 0.208 to 36.4 µM) | > 25 | 0.1 to 0.3 (≈ 0.208 to 0.624 µM) | – | > 25 | < 0.1 | 3 (≈ 6.24 µM) | 0.75 to 17.5 (≈ 1.56 to 36.4 µM) | – | – | – | – | –
3 | CN[C@@H]1[C@@H](O)[C@@H](O[C@@H]2[C@@H](O)[C@H](O)[C@@H](N)C[C@H]2N)OC[C@]1(C)O [Garamine, 0-3-deoxy-4-C-methyl-3-(methylamino)-β-L-arabinopyranosyl-(1→6)-2-deoxy-D-streptamine] | – | – | – | – | – | – | – | – | – | – | – | – | – | – | – | 8.5 | – | – | – | –
4 | CN[C@@H]1[C@@H](O)[C@@H](O[C@@H]2[C@@H](O)[C@H](O[C@H]3O[C@H](CO)[C@@H](O)[C@H](O)[C@H]3O)[C@@H](N)C[C@H]2N)OC[C@]1(C)O [O-α-D-Glucopyranosyl-(1→4)-garamine] | – | – | – | – | – | – | – | – | – | – | – | – | – | – | – | – | 10 | 25 (≈ 51.7 µM) | < 10 | 10 (≈ 20.7 µM)
